According to patent publication US7947733B2, “Phosphorylated pyrone analogs and methods” (Limerick BioPharma, priority 2007, dated 2011):
Where “and” joins values, the source holds several entries; their conditions need not be identical. Equal values may be shown once.

Tests used:
[1] = Stability of Quercetin-3′-O-phosphate in water; assay type: physicochemical; settings: water at pH 8, 24 hours, ambient temperature
Protocol: Quercetin-3′-O-phosphate is dissolved in water at about pH 8.

rats = experiment: Blood glucose levels in rats co-administered with quercetin-3′-O-phosphate and tacrolimus; assay type: in vivo, rat; settings: for Blood glucose, Mean change from Prograf ® control / Blood glucose, Mean change from Day 1: Q-Phosphate 114 mg/kg + Prograf 0.5 mg/kg i.p.; for Blood glucose, Mean: Q-Phosphate 114 mg/kg i.p. Day 11 to Day 25 + Prograf 0.5 mg/kg i.p., 5 rats; for Blood glucose, individual rats: Q-Phosphate 114 mg/kg i.p. once daily Day 11 to Day 25 + Prograf 0.5 mg/kg i.p. Day 1 to Day 25
Protocol: One set of 5 rats is treated from day 1 to day 25 with inert vehicle 2 intraperitoneally and treated from day 11 to day 25 with inert vehicle 1 intraperitoneally. […] A third set 5 of rats is treated from day 1 to day 25 with tacrolimus (Prograf®) intraperitoneally at 0.5 mg/kg, and treated from day 11 to day 25 intraperitoneally with quercetin-3′-O-phosphate (Q-Phosphate) at 114 mg/kg. The blood glucose level in the rats is measured on days 1, 10, 15, 20, and 25.

SMILES: O=c1c(O)c(-c2ccc(O)c(OP(=O)(O)O)c2)oc2cc(O)cc(O)c12 [Quercetin-3′-O-phosphate]
- degradation seen by NMR [1]: no degradation
- Blood glucose, Mean change from Prograf ® control (rats; Day 1): +0.02 g/l
- Blood glucose, Mean (rats; Day 1): 1.29 g/L
- Blood glucose, individual rats (rats; Day 1): 1.18 g/L and 1.19 g/L and 1.41 g/L and 1.36 g/L and 1.30 g/L
- Blood glucose, Mean change from Day 1 (rats; Day 10): +0.65 g/l
- Blood glucose, Mean change from Prograf ® control (rats; Day 10): +0.45 g/l
- Blood glucose, Mean (rats; Day 10): 1.94 g/L
- Blood glucose, individual rats (rats; Day 10): 1.50 g/L and 2.41 g/L and 2.19 g/L and 1.51 g/L and 2.10 g/L
- Blood glucose, Mean change from Day 1 (rats; Day 15): +0.99 g/l
- Blood glucose, Mean change from Prograf ® control (rats; Day 15): -0.26 g/L
- Blood glucose, Mean (rats; Day 15): 2.28 g/L
- Blood glucose, individual rats (rats; Day 15): 2.07 g/L and 2.90 g/L and 3.16 g/L and 1.83 g/L and 1.42 g/L
- Blood glucose, Mean change from Day 1 (rats; Day 20): +1.55 g/l
- Blood glucose, Mean change from Prograf ® control (rats; Day 20): -0.09 g/L
- Blood glucose, Mean (rats; Day 20): 2.84 g/L
- Blood glucose, individual rats (rats; Day 20): 1.99 g/L and 3.28 g/L and 3.67 g/L and 3.58 g/L and 1.67 g/L
- Blood glucose, Mean change from Day 1 (rats; Day 25): +0.87 g/l
- Blood glucose, Mean change from Prograf ® control (rats; Day 25): -0.39 g/L
- Blood glucose, Mean (rats; Day 25): 2.16 g/L
- Blood glucose, individual rats (rats; Day 25): 2.34 g/L and 2.54 g/L and 2.04 g/L and 2.67 g/L and 1.23 g/L
- effect on tacrolimus induced hyperglycemia (rats; rats, Q-Phosphate 114 mg/kg i.p. with tacrolimus 0.5 mg/kg): can attenuate tacrolimus induced hyperglycemia
